pIC50: −log10 of the molar value. Like-named read-outs stand apart in the source and are kept apart here.
Assays:
[1] = Mouse brain uptake assay (MBUA), 3 mg/kg IV, 0-24 h, 4 time points; assay type: in vivo, male CD1 mice; conditions: for Kp / clearance / half-life / AUC(0-t) / Kp uu: male; for Kp: CD1, mouse, brain/plasma, iv, 3 mg/kg; for clearance / half-life: CD1, plasma, 4 time points; for clearance / half-life / AUC(0-t) / Kp uu / fraction unbound: mouse; for clearance / half-life / AUC(0-t) / Kp uu: 3 mg/kg IV, 0-24 h; for half-life: read-out: t½ (converted); for AUC(0-t) / Kp uu: CD1; for Kp uu: unbound brain/unbound plasma
Protocol: Example 38: Pharmacokinetics and Brain Penetration Experiment to Determine Brain and Plasma Concentrations of Compounds after IV Administration to Male CD1 Mice
The study design (9 animals) consisted of administrating the drug (IV: 3 mg/kg (5 mL/kg) via tail vein injection) and collecting samples at terminal bleeding for plasma and brain at 0.083, 0.5 and 1 h. The IV dosing solution was prepared in 50 mM citrate buffer (pH 4.0) at 0.6 mg/mL. The blood collection was performed as follows: the animal was restrained manually and approximately 150 μL blood/time point was collected into a dipotassium EDTA tube via retro orbital puncture under anesthesia with isoflurane. The blood sample was put on ice and centrifuged to obtain a plasma sample (2000 g, 5 min under 4° C.) within 15 minutes. The brain collection was performed as follows: a mid-line incision was made in the animal's scalp and the skin was retracted. Using small bone cutters and rongeurs, the skull overlying the brain was removed. The brain was removed using a spatula and the brain rinsed with cold saline. The brain was placed in screw-top tubes, and the tubes were stored at −70° C. until analysis.
An aliquot of 30 μL sample was added to 150 μL MeCN containing 50 ng/mL IS (Dexamethasone). The mixture was vortexed for 5 min and centrifuged at 14,000 rpm for 5 min. An aliquot of 5 μL supernatant was injected for LC-MS/MS analysis.
An aliquot of 30 μL brain homogenate (brain:PBS=1:3, w/v) sample was added to 150 μL IS in MeCN (Dexamethasone, 50 ng/mL). The mixture was vortexed for 5 min and centrifuged at 14,000 rpm for 5 min. An aliquot of 5 μL supernatant was injected for LC-MS/MS analysis.
The sample analysis was performed on LCMS/MS-003 (API4000, triple quadruple) under the following conditions: positive ion, ESI, MRM detection using dexamethasone as internal standard. HPLC conditions: mobile phase A: H2O (0.025% formic acid (FA) with 1 mM NH4OAc); mobile phase B: MeOH (0.025% FA with 1 mM NH4OAc) on Waters X-Bridge C18 (2.1×50 mm, 2.5 μm) column at 60° C.
A similar experiment was performed with 4 time points taken from 0-24 h.

[2] = in vitro; conditions: human, Caco-2, pH 7.4
How it was run: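 Caco-2 monolayers, checked by TEER with Lucifer yellow as marker, were dosed with 10 μM compound in HBSS pH 7.4 in A-to-B and B-to-A directions. Incubation was 90 min at 37° C, in duplicate. Samples were quantified by LC-MS/MS and Papp calculated.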

[3] = target: T1, CXCR-4 transfected U87 cell line (U87.CXCR4) (Homo sapiens, UniProt P61073); experiment: Intracellular CXCL-12-induced calcium mobilization assay (FLIPR); assay type: cell-based; conditions: U87.CXCR4 cells; CXCL-12 25-50 ng/mL; compound added 15 min before; read-out: IC50 CXCL-12 Ca^2+ flux U87.CXCR4+
T1 construct: expressed in transfected cells; host or cells: U87 (U87.CXCR4)
How it was run: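 U87 cells stably expressing human CXCR4, loaded with Fluo-2 AM (4 μM final) for 45 min at 37 °C in HBSS/20 mM HEPES/0.2% BSA, pH 7.4. Calcium flux triggered by CXCL-12 (25-50 ng/mL) was followed by FLIPR fluorescence over time at 37 °C.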

[4] = target: T2, Jurkat cells expressing CXCR4 (Homo sapiens, UniProt P61073); experiment: Chemokine (CXCL12-AF647) binding inhibition assay; conditions: CXCL12-AF647 25 ng/mL, read-out: IC50 CXCL-12 binding Jurkat
T2 construct: endogenous in cells; host or cells: Jurkat
How it was run: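 Cells in HBSS, 20 mM HEPES, 0.2% BSA, pH 7.4, preincubated 15 min at room temperature with compound, then 25 ng/mL CXCL12-AF647 for 30 min. After washing and paraformaldehyde fixation, bound ligand read by flow cytometry; percent inhibition calculated from MFI relative to unlabeled and ligand-only controls.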

[5] = fraction unbound to brain proteins, read-out: Fu (b) %
[6] = fraction unbound to plasma proteins, read-out: Fu (p) %

T2 sequence (P61073 whole entry): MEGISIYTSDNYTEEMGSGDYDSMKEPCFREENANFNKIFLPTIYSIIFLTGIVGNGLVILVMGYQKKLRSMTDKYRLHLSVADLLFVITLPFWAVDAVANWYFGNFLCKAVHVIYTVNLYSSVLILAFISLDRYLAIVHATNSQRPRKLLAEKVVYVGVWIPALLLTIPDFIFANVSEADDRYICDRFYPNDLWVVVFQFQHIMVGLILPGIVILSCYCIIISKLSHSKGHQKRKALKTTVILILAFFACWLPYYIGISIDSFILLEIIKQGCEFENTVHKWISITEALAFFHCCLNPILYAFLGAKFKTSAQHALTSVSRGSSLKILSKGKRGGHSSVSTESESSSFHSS
T1 sequence (P61073 whole entry): as above

Compound	Kp [1]	clearance [1] [L/h/kg]	half-life [1] [min]	AUC(0-t) ([1]; brain, read-out: AUClast (b)) [µg·h/mL]	AUC(0-t) ([1]; plasma, read-out: AUClast (P)) [µg·h/mL]	Kp uu [1]	fraction unbound [1, 5]	fraction unbound [1, 6]	Papp A→B at 90 min, 10 μM [2] [nm/s]	Papp B→A at 90 min, 10 μM [2] [nm/s]	efflux ratio at 90 min, 10 μM [2]	pIC50 [3]	pIC50 [4]
Cc1c(Cl)ccnc1[C@@H]1CCC[C@H](c2nc3cccc(N4CCN(C)CC4)c3[nH]2)N1C [I-82]	4.27	10.3	16.3	1.15	0.269	0.65	0.005	0.033	100 to 300	100 to 300	0.1 to 10	7.00 to 11.00	7.00 to 11.00
CN1[C@@H](c2nc3cccc(N4CCN5CCCC5C4)c3[nH]2)CCC[C@H]1c1ncccc1Cl (some centres unmarked) [I-96]	31.2	6.14	13.7	15.3	14.8	11.3	0.012	0.033	–	–	–	6.00 to 7.00	7.00 to 11.00
CO[C@H]1C[C@H](c2nc3cccc(N4CCN(C)CC4)c3[nH]2)N(C)[C@H](c2ncccc2C)C1 [I-103]	7.3	6.1	16.7	3.28	0.449	–	–	–	100 to 300	100 to 300	0.1 to 10	6.00 to 7.00	7.00 to 11.00
Cc1cccnc1[C@@H]1CCC[C@H](c2nc3cccc(N4CCN(C)C5(CC5)C4)c3[nH]2)N1C [I-108]	55.8	6.89	15.1	22.8	0.408	–	–	–	> 300	100 to 300	0.1 to 10	6.00 to 7.00	7.00 to 11.00
Cc1cccnc1[C@@H]1CCC[C@H](c2nc3cccc(N4C5CCC4CN(C)C5)c3[nH]2)N1 [I-120]	1.05	–	–	5.11	4.82	0.07	0.014	0.201	100 to 300	100 to 300	0.1 to 10	7.00 to 11.00	7.00 to 11.00
Cc1cccnc1[C@@H]1CCC[C@H](c2nc3cccc(N4CCN(C(C)C)CC4)c3[nH]2)N1 [I-128]	2.5	–	–	3.94	1.58	0.2	0.011	0.135	1 to 100	100 to 300	0.1 to 10	7.00 to 11.00	7.00 to 11.00
CN1CCC(n2ccnc2[C@H]2CCC[C@@H](c3ncccc3Cl)N2C)CC1 [I-170]	7.23	3.36	229	6.41	0.887	–	–	–	100 to 300	100 to 300	0.1 to 10	≤ 6.00	7.00 to 11.00
CN1CCC(n2ccnc2[C@H]2CCC[C@@H](c3ccccn3)N2)CC1 [I-180]	–	–	–	–	–	–	–	–	1 to 100	100 to 300	0.1 to 10	≤ 6.00	≤ 6.00
